{"source": "the NIST ThermoML archive (doi:10.1021/je1007197)", "details": "Liquid, Hot wire method", "note": "Where “and” joins values, the source holds several entries; their conditions need not be identical. Equal entries are not always repeated. ± gives the expanded uncertainty stated by the source.", "data": [{"smiles": "CCCCOCCO", "note": "[2-butoxyethan-1-ol]", "values": [{"measurement": "thermal conductivity", "setting": "304.15 K, 100 kPa", "value": "0.1529 ± 0.001 W/m/K and 0.1533 ± 0.001 W/m/K"}, {"measurement": "thermal conductivity", "setting": "304.15 K, 16400 kPa", "value": "0.1579 ± 0.001", "unit": "W/m/K"}, {"measurement": "thermal conductivity", "setting": "304.15 K, 27300 kPa", "value": "0.1612 ± 0.001", "unit": "W/m/K"}, {"measurement": "thermal conductivity", "setting": "304.15 K, 41800 kPa", "value": "0.1646 ± 0.001", "unit": "W/m/K"}, {"measurement": "thermal conductivity", "setting": "304.15 K, 56100 kPa", "value": "0.1689 ± 0.0011", "unit": "W/m/K"}, {"measurement": "thermal conductivity", "setting": "304.15 K, 70200 kPa", "value": "0.1722 ± 0.0011", "unit": "W/m/K"}, {"measurement": "thermal conductivity", "setting": "304.15 K, 79000 kPa", "value": "0.174 ± 0.0011", "unit": "W/m/K"}, {"measurement": "thermal conductivity", "setting": "304.15 K, 83500 kPa", "value": "0.1749 ± 0.0011", "unit": "W/m/K"}, {"measurement": "thermal conductivity", "setting": "304.15 K, 98200 kPa", "value": "0.1785 ± 0.0011", "unit": "W/m/K"}, {"measurement": "thermal conductivity", "setting": "304.15 K, 112200 kPa", "value": "0.182 ± 0.0011", "unit": "W/m/K"}, {"measurement": "thermal conductivity", "setting": "304.15 K, 124100 kPa", "value": "0.1836 ± 0.0011", "unit": "W/m/K"}, {"measurement": "thermal conductivity", "setting": "304.15 K, 140100 kPa", "value": "0.187 ± 0.0012", "unit": "W/m/K"}, {"measurement": "thermal conductivity", "setting": "304.15 K, 149200 kPa", "value": "0.1885 ± 0.0012", "unit": "W/m/K"}, {"measurement": "thermal conductivity", "setting": "321.15 K, 100 kPa", "value": "0.1497 ± 0.0009 W/m/K and 0.1496 ± 0.0009 W/m/K"}, {"measurement": "thermal conductivity", "setting": "321.15 K, 16400 kPa", "value": "0.1548 ± 0.001", "unit": "W/m/K"}, {"measurement": "thermal conductivity", "setting": "321.15 K, 27300 kPa", "value": "0.1585 ± 0.001", "unit": "W/m/K"}, {"measurement": "thermal conductivity", "setting": "321.15 K, 41800 kPa", "value": "0.1628 ± 0.001", "unit": "W/m/K"}, {"measurement": "thermal conductivity", "setting": "321.15 K, 56100 kPa", "value": "0.1665 ± 0.001", "unit": "W/m/K"}, {"measurement": "thermal conductivity", "setting": "321.15 K, 70200 kPa", "value": "0.1701 ± 0.0011", "unit": "W/m/K"}, {"measurement": "thermal conductivity", "setting": "321.15 K, 84200 kPa", "value": "0.1739 ± 0.0011", "unit": "W/m/K"}, {"measurement": "thermal conductivity", "setting": "321.15 K, 98200 kPa", "value": "0.177 ± 0.0011", "unit": "W/m/K"}, {"measurement": "thermal conductivity", "setting": "321.15 K, 112200 kPa", "value": "0.18 ± 0.0011", "unit": "W/m/K"}, {"measurement": "thermal conductivity", "setting": "321.15 K, 126200 kPa", "value": "0.183 ± 0.0011", "unit": "W/m/K"}, {"measurement": "thermal conductivity", "setting": "321.15 K, 134900 kPa", "value": "0.1851 ± 0.0011", "unit": "W/m/K"}, {"measurement": "thermal conductivity", "setting": "321.15 K, 150600 kPa", "value": "0.1879 ± 0.0012", "unit": "W/m/K"}, {"measurement": "thermal conductivity", "setting": "338.15 K, 100 kPa", "value": "0.1461 ± 0.0009 W/m/K and 0.1463 ± 0.0009 W/m/K"}, {"measurement": "thermal conductivity", "setting": "338.15 K, 16400 kPa", "value": "0.1518 ± 0.001", "unit": "W/m/K"}, {"measurement": "thermal conductivity", "setting": "338.15 K, 27300 kPa", "value": "0.1555 ± 0.001", "unit": "W/m/K"}, {"measurement": "thermal conductivity", "setting": "338.15 K, 41800 kPa", "value": "0.1601 ± 0.001", "unit": "W/m/K"}, {"measurement": "thermal conductivity", "setting": "338.15 K, 56100 kPa", "value": "0.164 ± 0.001", "unit": "W/m/K"}, {"measurement": "thermal conductivity", "setting": "338.15 K, 70200 kPa", "value": "0.1677 ± 0.001", "unit": "W/m/K"}, {"measurement": "thermal conductivity", "setting": "338.15 K, 84200 kPa", "value": "0.1717 ± 0.0011", "unit": "W/m/K"}, {"measurement": "thermal conductivity", "setting": "338.15 K, 98200 kPa", "value": "0.1751 ± 0.0011", "unit": "W/m/K"}, {"measurement": "thermal conductivity", "setting": "338.15 K, 108700 kPa", "value": "0.1775 ± 0.0011", "unit": "W/m/K"}, {"measurement": "thermal conductivity", "setting": "338.15 K, 123400 kPa", "value": "0.1807 ± 0.0011", "unit": "W/m/K"}, {"measurement": "thermal conductivity", "setting": "338.15 K, 140100 kPa", "value": "0.1844 ± 0.0011", "unit": "W/m/K"}]}]}
